Measured values published in patent US20250011347A1, “NOVEL PLASMALOGEN DERIVATIVE” (Institute of Rheological Function of Food Co., Ltd., priority 2021, published 2025).

How the values were obtained:
[1] = tested on: inflammatory cytokine IL-1β; assay: LPS-induced IL-1β expression in BV2 microglial cells (semi-quantitative PCR); format: cell-based, mouse; details: compound 5 μg/ml 12 hours, then LPS 1 μg/ml 2 hours, FIG. 1
Protocol: Mouse microglial cells (BV2) were cultured using a DMEM medium containing 2% FBS (fetal bovine serum) for 12 hours under conditions with or without the addition of the compound of the present invention, KIT-008 (5 μg/ml). Thereafter, the cells were treated with LPS (1 μg/ml) for 2 hours, and intracellular RNAs were extracted with an RNA extraction kit (TRI Reagent, Molecular Research Center Inc.), and the expression of an inflammatory cytokine IL-1β and the RNA expression of the Gapdh gene as a control were detected by semi-quantitative PCR (TaKaRa PrimeScript 1st strand cDNA synthesis Kit, TAKARA BIOTECHNOLOGY Co., LTD.).

p65 (NFkB) = assay: LPS-induced p65 nuclear accumulation in BV2 microglial cells (Western blotting); format: cell-based, mouse; details: compound 5 μg/ml 12 hours, then LPS 1 μg/ml 2 hours, FIG. 2
Protocol: Mouse microglial cells (BV2) were cultured using a DMEM medium containing 2% FBS (fetal bovine serum) for 12 hours under conditions with or without the addition of the compound of the present invention, KIT-008 or KIT-020 (5 μg/ml). Thereafter, it was treated with LPS (1 μg/ml) for 2 hours, proteins in the cell nucleus were extracted, and p65 (NFkB) protein expression was detected by Western blotting using NF-κB p65 (Cell Signaling Technology, the clone name: D14E12) as a primary antibody and Anti-Rabbit IgG HRP-linked antibody (Cell Signaling Technology) as a secondary antibody.

c57BL6J mice = assay: Water maze test of mice with LPS-induced memory impairment; format: in vivo, mouse; details: 10 mg/50 kg/day in drinking water 4 weeks, then LPS 7 days, Trial 6, P<0.05, FIG. 12
Protocol: Specifically, 8-week-old male c57BL6J mice (5 mice in each group, n=5) were allowed to drink each of the compounds of the present invention (KIT-008 and KIT-020) at a dose of 10 mg/50 kg/day for 4 weeks, and were then subjected to LPS treatment (200 mg/kg/day) for 7 days while allowing them to drink the compound in the same manner. Thereafter, they were subjected to a water maze test for 2 days (3 trials per day).
Escape Latency indicates the time required to arrive at an escape platform (arrival time). Comparisons between groups were performed by ANOVA test and Bonferroni's post hoc test. […] Therefore, the compounds of the present invention are effective in improving brain function (cognitive function).

[2] = tested on: amyloid beta (Aβ) in N2a cells; assay: Amyloid beta (Aβ) accumulation in lysosomes of CFPAPPsw-expressing N2a cells; format: cell-based, mouse; details: N2a cells expressing CFPAPPsw in LPS-treated BV2-derived medium, pretreatment with compound; antibody 6E10; FIG. 11
Text: A plasmid having cDNA encoding CFPAPPsw (CFPAPPsw that fuses a fluorescent protein CFP to the N-terminus of an amyloid precursor protein (APPsw) having a Swedish-type amino acid substitution that is easily cleaved by BACE) was expressed in N2a cells, and localization of amyloid beta (Aβ) in the N2a cells in an untreated mouse glial cell BV2 culture supernatant (−LPS), in the N2a cells in LPS-treated BV2 culture supernatant (LPS-treated BV2-derived medium), and in the N2a cells administered with KIT-008 was verified using an antibody 6E10 (BioLegend) that recognizes the Aβ portion.

MeCP2-deficient mice = assay: Survival (lifetime) of MeCP2-deficient mice; format: in vivo, mouse; details: male MeCP2-deficient mice from 4 weeks old, 20 ng/g body weight in drinking water twice a week
Protocol: Four-week-old male MeCP2-deficient mice were used in the experiment. The MeCP2-deficient mice were divided into two groups: a KIT-008 administration group (KO-KIT-008, n=13) and a control group (KO-All, n=28). The body weight of each of the mice in the administration group was measured in advance. The compound KIT-008 was suspended in water by sonication so that KIT-008 was ingested at 20 ng/g body weight, and it was continuously administered in drinking water to each mouse twice a week to verify its survival. The control group was given only water in the same manner.

[3] = tested on: inducible nitric oxide synthase (iNOS); assay: LPS-induced iNOS expression in mouse hippocampal tissue (immunohistochemistry); format: in vivo; details: c57BL6J mice hippocampal tissue, 10 mg/50 kg/day in drinking water 4 weeks, then LPS 10 days; FIG. 15, 16
Protocol: Specifically, 8-week-old male c57BL6J mice were allowed to drink each of the compounds of the present invention (KIT-008 and KIT-020) at a dose of 10 mg/50 kg/day for 4 weeks, and were then subjected to LPS treatment (200 mg/kg/day) for 10 days while allowing them to drink the compound in the same manner. The mouse brain tissue was subjected to an immunohistochemistry (IHC) study using an anti-NeuN antibody (a neuron marker, Millipore MAB377) and an anti-iNOS antibody (an inflammatory marker, Invitrogen PA1-036). DAPI was used to stain a cell nucleus.
In FIG. 15, the scale bar is 50 μm and the arrows indicate iNOS-positive neurons. The data in FIG. 16 represents the average value for each group (3 mice, n=3). In the LPS group, the number of iNOS-positive neurons increased compared to that in the control group, but in the KIT-008 group and the KIT-020 group, the increase in iNOS-positive neurons caused by LPS was suppressed.

[4] = tested on: amyloid beta (Aβ) deposition in hippocampal tissue; assay: LPS-induced amyloid beta (Aβ) deposition in mouse hippocampal tissue (immunohistochemistry); format: in vivo; details: c57BL6J mice hippocampal tissue, 10 mg/50 kg/day in drinking water 4 weeks, then LPS 10 days; FIG. 13, 14
Protocol: Specifically, 8-week-old male c57BL6J mice were allowed to drink each of the compounds of the present invention (KIT-008 and KIT-020) at a dose of 10 mg/50 kg/day for 4 weeks, and were then subjected to LPS treatment (200 mg/kg/day) for 10 days while allowing them to drink the compound in the same manner. The mouse hippocampal tissue was subjected to an immunohistochemistry test using an anti-amyloid beta antibody (a cocktail of two antibodies, 6E10 (BioLegend) and 82E1 (Immuno-Biological Laboratories Co, Ltd)). DAPI was used to stain a cell nucleus. In FIG. 13, the scale bar is 100 μm and the arrows indicate amyloid beta that deposited. The data in FIG. 14 represent the average number of amyloid beta deposition in each group (3 mice, n=3). In the LPS group, amyloid beta deposition was observed compared to the control group, but in the KIT-008 group and the KIT-020 group, amyloid beta deposition caused by LPS was suppressed.

With `CC/C=C\C/C=C\C/C=C\C/C=C\C/C=C\C/C=C\CCC(=O)O[C@H](COC/C=C/CCCCCCCCCCCCCCC)COP(=O)(O)OCCN` [KIT-008, 2-((((R)-2-(((4Z,7Z,10Z,13Z,16Z,19Z)-docosa-4,7,10,13,16,19-hexenoyl)oxy)-3-(((E)-octadec-2-en-1-yl)oxy)propoxy)(hydroxy)phosphoryl)oxy)ethane-1-ammonium 2,2,2-trifluoroacetate] the “LPS-induced inflammatory cytokine IL-1β expression” value [1] was “reduced”, the “LPS-induced p65 nuclear accumulation” value (p65 (NFkB)) was “suppressed” and the “memory retention (Escape Latency) compared to the LPS group” value (c57BL6J mice) was “improvement in memory retention”. For the same compound, the “accumulation of Aβ in lysosomes” value [2] was “eliminated”, the “survival rate compared with MeCP2-deficient mice not administered” value (MeCP2-deficient mice; FIG. 5) was “higher” and the “number of days until the survival rate reached 50%” value (MeCP2-deficient mice; control group 64.5 days) was 78 days. The “increase in iNOS-positive neurons caused by LPS” value [3] was “suppressed” and the “amyloid beta deposition caused by LPS” value [4] was “suppressed”.
